Laboratory results: ChEMBL document CHEMBL4002566, “S-substituted 3,5-dinitrophenyl 1,3,4-oxadiazole-2-thiols and tetrazole-5-thiols as highly efficient antitubercular agents” (Eur J Med Chem, 2017)
In brackets after ≈: the same amount, converted by molar mass.

Columns and labels:
[1] = tested on: Staphylococcus aureus; test: Antibacterial activity against Staphylococcus aureus ATCC 6538 after 24 hrs by broth microdilution method; type: functional; settings: ATCC 6538, 24 h
[2] = tested on: Staphylococcus aureus; test: Antibacterial activity against methicillin-resistant Staphylococcus aureus HK5996/08 after 24 hrs by broth microdilution method; type: functional; settings: HK5996/08, 24 h
[3] = tested on: Staphylococcus epidermidis; test: Antibacterial activity against Staphylococcus epidermidis HK6996/08 after 24 hrs by broth microdilution method; type: functional; settings: HK6996/08, 24 h
[4] = tested on: Enterococcus sp.; test: Antibacterial activity against Enterococcus sp. HK14365/08 after 24 hrs by broth microdilution method; type: functional; settings: HK14365/08, 24 h
[5] = tested on: Mycobacterium tuberculosis; test: Antimycobacterial activity against Mycobacterium tuberculosis CNCTC My 331/88 after 14 days by micromethod; type: functional; settings: CNCTC My 331/88, 336 h
[6] = tested on: Mycobacterium kansasii; test: Antimycobacterial activity against Mycobacterium kansasii CNCTC My 235/80 after 14 days by micromethod; type: functional; settings: CNCTC My 235/80, 336 h
[7] = tested on: Mycobacterium kansasii; test: Antimycobacterial activity against Mycobacterium kansasii 6509/96 clinical isolate after 14 days by micromethod; type: functional; settings: 6509/96, 336 h
[8] = tested on: Candida albicans; test: Antifungal activity against Candida albicans ATCC 44859 after 24 hrs by broth microdilution method; type: functional; settings: ATCC 44859, 24 h
[9] = tested on: Candida albicans; test: Antifungal activity against Candida albicans ATCC 44859 after 48 hrs by broth microdilution method; type: functional; settings: ATCC 44859, 48 h
[10] = tested on: Candida tropicalis; test: Antifungal activity against Candida tropicalis 156 after 24 hrs by broth microdilution method; type: functional; settings: Candida tropicalis, 156, 24 h
[11] = tested on: Candida tropicalis; test: Antifungal activity against Candida tropicalis 156 after 48 hrs by broth microdilution method; type: functional; settings: Candida tropicalis, 156, 48 h
[12] = tested on: Pichia kudriavzevii; test: Antifungal activity against Candida krusei E28 after 24 hrs by broth microdilution method; type: functional; settings: E28, 24 h
[13] = tested on: Pichia kudriavzevii; test: Antifungal activity against Candida krusei E28 after 48 hrs by broth microdilution method; type: functional; settings: E28, 48 h
[14] = tested on: Nakaseomyces glabratus; test: Antifungal activity against Candida glabrata 20/I after 24 hrs by broth microdilution method; type: functional
[15] = tested on: Nakaseomyces glabratus; test: Antifungal activity against Candida glabrata 20/I after 48 hrs by broth microdilution method; type: functional
[16] = tested on: Trichosporon asahii; test: Antifungal activity against Trichosporon asahii 1188 after 24 hrs by broth microdilution method; type: functional; settings: Trichosporon asahii, 1188, 24 h
[17] = tested on: Trichosporon asahii; test: Antifungal activity against Trichosporon asahii 1188 after 48 hrs by broth microdilution method; type: functional; settings: Trichosporon asahii, 1188, 48 h
[18] = tested on: Aspergillus fumigatus; test: Antifungal activity against Aspergillus fumigatus 231 after 24 hrs by broth microdilution method; type: functional; settings: Aspergillus fumigatus, 231, 24 h
[19] = tested on: Aspergillus fumigatus; test: Antifungal activity against Aspergillus fumigatus 231 after 48 hrs by broth microdilution method; type: functional; settings: Aspergillus fumigatus, 231, 48 h
[20] = tested on: Lichtheimia corymbifera; test: Antifungal activity against Absidia corymbifera 272 after 24 hrs by broth microdilution method; type: functional; settings: Lichtheimia corymbifera, 272, 24 h
[21] = tested on: Lichtheimia corymbifera; test: Antifungal activity against Absidia corymbifera 272 after 48 hrs by broth microdilution method; type: functional; settings: Lichtheimia corymbifera, 272, 48 h
[22] = tested on: Trichophyton mentagrophytes; test: Antifungal activity against Trichophyton mentagrophytes 445 after 72 hrs by broth microdilution method; type: functional; settings: Trichophyton mentagrophytes, 445, 72 h
[23] = tested on: Trichophyton mentagrophytes; test: Antifungal activity against Trichophyton mentagrophytes 445 after 120 hrs by broth microdilution method; type: functional; settings: Trichophyton mentagrophytes, 445, 120 h
[24] = tested on: Staphylococcus aureus; test: Antibacterial activity against Staphylococcus aureus ATCC 6538 after 48 hrs by broth microdilution method; type: functional; settings: ATCC 6538, 48 h
[25] = tested on: Staphylococcus aureus; test: Antibacterial activity against methicillin-resistant Staphylococcus aureus HK5996/08 after 48 hrs by broth microdilution method; type: functional; settings: HK5996/08, 48 h
[26] = tested on: Staphylococcus epidermidis; test: Antibacterial activity against Staphylococcus epidermidis HK6996/08 after 48 hrs by broth microdilution method; type: functional; settings: HK6996/08, 48 h
[27] = tested on: Enterococcus sp.; test: Antibacterial activity against Enterococcus sp. HK14365/08 after 48 hrs by broth microdilution method; type: functional; settings: HK14365/08, 48 h
[28] = tested on: Escherichia coli; test: Antibacterial activity against Escherichia coli ATCC 8739 after 24 hrs by broth microdilution method; type: functional; settings: ATCC 8739, 24 h
[29] = tested on: Escherichia coli; test: Antibacterial activity against Escherichia coli ATCC 8739 after 48 hrs by broth microdilution method; type: functional; settings: ATCC 8739, 48 h
[30] = tested on: Klebsiella pneumoniae; test: Antibacterial activity against Klebsiella pneumoniae HK11750/08 after 24 hrs by broth microdilution method; type: functional; settings: HK11750/08, 24 h
[31] = tested on: Klebsiella pneumoniae; test: Antibacterial activity against Klebsiella pneumoniae HK11750/08 after 48 hrs by broth microdilution method; type: functional; settings: HK11750/08, 48 h
[32] = tested on: Klebsiella pneumoniae; test: Antibacterial activity against extended spectrum beta-lactamase producing Klebsiella pneumoniae HK14368/08 after 24 hrs by broth microdilution method; type: functional; settings: HK14368/08, 24 h
[33] = tested on: Klebsiella pneumoniae; test: Antibacterial activity against extended spectrum beta-lactamase producing Klebsiella pneumoniae HK14368/08 after 48 hrs by broth microdilution method; type: functional; settings: HK14368/08, 48 h
[34] = tested on: Pseudomonas aeruginosa; test: Antibacterial activity against Pseudomonas aeruginosa ATCC 9027 after 24 hrs by broth microdilution method; type: functional; settings: ATCC 9027, 24 h
[35] = tested on: Pseudomonas aeruginosa; test: Antibacterial activity against Pseudomonas aeruginosa ATCC 9027 after 48 hrs by broth microdilution method; type: functional; settings: ATCC 9027, 48 h
[36] = Cytotoxicity against human HuH7 cells assessed as cell viability at 30 uM after 48 hrs by MTS assay relative to control; type: cell-based, Huh-7; settings: read-out: Activity
[37] = tested on: Huh-7; test: Cytotoxicity against human HuH7 cells assessed as cell viability after 48 hrs by MTS assay; type: cell-based; settings: Huh-7, 48 h
[38] = tested on: A-431; test: Cytotoxicity against human A431 cells assessed as cell viability after 48 hrs by MTS assay; type: cell-based; settings: A-431, 48 h
[39] = Cytotoxicity against human A431 cells assessed as cell viability at 30 uM after 48 hrs by MTS assay relative to control; type: cell-based, A-431; settings: read-out: Activity
[40] = tested on: MDCK; test: Cytotoxicity against MDCK cells assessed as cell viability after 48 hrs by MTS assay; type: cell-based; settings: Canis lupus familiaris
[41] = Cytotoxicity against MDCK cells assessed as cell viability at 30 uM after 48 hrs by MTS assay relative to control; type: cell-based, Canis lupus familiaris; settings: dog, read-out: Activity
[42] = tested on: HepG2; test: Cytotoxicity against human HepG2 cells assessed as cell viability after 48 hrs by MTS assay; type: cell-based; settings: HepG2, 48 h
[43] = Cytotoxicity against human HepG2 cells assessed as cell viability at 30 uM after 48 hrs by MTS assay relative to control; type: cell-based; settings: read-out: Activity
[44] = Selectivity index, ratio of IC50 for human HepG2 cells to MIC for Mycobacterium tuberculosis; type: toxicity; settings: read-out: Selectivity Index
[45] = tested on: Mycobacterium tuberculosis; test: Antimycobacterial activity against Mycobacterium tuberculosis CNCTC My 331/88 after 21 days by micromethod; type: functional; settings: CNCTC My 331/88, 504 h
[46] = tested on: Mycobacterium kansasii; test: Antimycobacterial activity against Mycobacterium kansasii CNCTC My 235/80 after 21 days by micromethod; type: functional; settings: CNCTC My 235/80, 504 h
[47] = tested on: Mycobacterium kansasii; test: Antimycobacterial activity against Mycobacterium kansasii CNCTC My 235/80 after 7 days by micromethod; type: functional; settings: CNCTC My 235/80, 168 h
[48] = tested on: Mycobacterium kansasii; test: Antimycobacterial activity against Mycobacterium kansasii 6509/96 clinical isolate after 21 days by micromethod; type: functional; settings: 6509/96, 504 h
[49] = tested on: Mycobacterium kansasii; test: Antimycobacterial activity against Mycobacterium kansasii 6509/96 clinical isolate after 7 days by micromethod; type: functional; settings: 6509/96, 168 h

CN[C@H](CC(C)C)C(=O)N[C@H]1C(=O)N[C@@H](CC(N)=O)C(=O)N[C@H]2C(=O)N[C@H]3C(=O)N[C@H](C(=O)N[C@H](C(=O)O)c4cc(O)cc(O)c4-c4cc3ccc4O)[C@H](O)c3ccc(c(Cl)c3)Oc3cc2cc(c3O[C@@H]2O[C@H](CO)[C@@H](O)[C@H](O)[C@H]2O[C@H]2C[C@](C)(N)[C@H](O)[C@H](C)O2)Oc2ccc(cc2Cl)[C@H]1O [VANCOMYCIN]
MIC [1]: 0.35 µM (≈ 0.507 µg/mL)
MIC [2]: 0.35 µM (≈ 0.507 µg/mL)
MIC [3]: 0.35 µM (≈ 0.507 µg/mL)
MIC [4]: 0.7 µM (≈ 1.01 µg/mL)

O=[N+]([O-])c1cc(-c2nnc(SCc3ccc(Cl)cc3)o2)cc([N+](=O)[O-])c1
MIC [5]: 0.03 µM (≈ 0.0118 µg/mL)
MIC [6]: 0.06 µM (≈ 0.0236 µg/mL)
MIC [7]: 0.03 µM (≈ 0.0118 µg/mL)
MIC [8]: > 125 µM
MIC [9]: > 125 µM
MIC [10]: > 125 µM
MIC [11]: > 125 µM
MIC [12]: > 125 µM
MIC [13]: > 125 µM
MIC [14]: > 125 µM
MIC [15]: > 125 µM
MIC [16]: > 125 µM
MIC [17]: > 125 µM
MIC [18]: > 125 µM
MIC [19]: > 125 µM
MIC [20]: > 125 µM
MIC [21]: > 125 µM
MIC [22]: > 125 µM
MIC [23]: > 125 µM
MIC [1]: > 500 µM
MIC [24]: > 500 µM
MIC [2]: > 500 µM
MIC [25]: > 500 µM
MIC [3]: > 500 µM
MIC [26]: > 500 µM
MIC [4]: > 500 µM
MIC [27]: > 500 µM
MIC [28]: > 500 µM
MIC [29]: > 500 µM
MIC [30]: > 500 µM
MIC [31]: > 500 µM
MIC [32]: > 500 µM
MIC [33]: > 500 µM
MIC [34]: > 500 µM
MIC [35]: > 500 µM
viability at 48 h, 30 µM [36]: 126%
IC50 [37]: > 30 µM
IC50 [38]: > 30 µM
viability at 48 h, 30 µM [39]: 100%
IC50 [40]: > 30 µM
viability at 48 h, 30 µM [41]: 110%
IC50 [42]: > 30 µM
viability at 48 h, 30 µM [43]: 126%
selectivity ratio [44]: > 1000
MIC [45]: 0.06 µM (≈ 0.0236 µg/mL)
MIC [46]: 0.125 µM (≈ 0.0491 µg/mL)
MIC [47]: 0.03 µM (≈ 0.0118 µg/mL)
MIC [48]: 0.03 µM (≈ 0.0118 µg/mL)
MIC [49]: 0.03 µM (≈ 0.0118 µg/mL)
